{"source": "patent US5744492A", "about": "“Method for inhibiting angiogenesis” (United States of America, priority 1994, dated 1998)", "key": {"[1]": {"test_system": "chick chorioallantoic membrane", "assay": "Chick chorioallantoic membrane (CAM) angiogenesis assay", "format": "in vivo", "conditions": "48 hr", "method": "The chick chorioallantoic or yolk sac membrane (CAM) assays for angiogenesis are important in vivo models of microvessel formation. […] Briefly, fertilized chick embryos with the yolk intact were removed from their shells on day 3 of development and incubated at 37° C."}, "[2]": {"test_system": "MMP-2", "assay": "Northern blot analysis of MMP-2 expression in HUVECs", "format": "cell-based, human", "conditions": "24 hr; for inhibition at 10 µM: Homo sapiens, HUVEC", "method": "(§1) Human umbilical vein endothelial cells (H 930) were generously supplied by Dr. Tom Maciag, American Red Cross (Gaithersburg, Md., USA) and were used between passages 9 and 14 to avoid senescence. HUVECs were grown on fibronectin-coated tissue culture plastic (200 μg/150 mm dish) in complete medium (Medium 199 (M-199) containing 5 U/mL preservative-free heparin, 25.5 μg/mL ECGS, 10% fetal bovine serum and 100 U/mL penicillin, 100 μg/mL streptomycin, and 0.25 μg/mL fungizone).\n(§2) HUVECs were grown to confluence as described. Fresh complete medium with test compounds was added to confluent cells for an additional 24 hr incubation. bFGF (10 ng/mL), and/or compound 1 (10 μM) or DMSO control (0.1%) were added as indicated below. Total RNA was isolated by the guanidine isothiocyanate/CsCl method. Aliquots of RNA (7.5 μg) were separated on 1% agarose/formaldehyde gels, passively transferred to GeneScreen Plus membrane in 20X SSC, then cross-linked with ultraviolet light. Blots were prewashed for 1 hr at 42° C. in 1M NaCl, 10 mM Tris, 1 mM EDTA, 0.1% SDS and then hybridized overnight at 42° C. with a formamide-containing buffer (hybridization buffer final: 50% formamide, 4X SSC, 10 mM Tris pH 7.5, IX Denhardt solution, 0.2% SDS, 125 μg/ml salmon sperm DNA) with a random-primed 300 bp insert for MMP-2 (gift of Dr. William Stetler-Stevenson, Laboratory of Pathology, NCI). Blots were washed under stringent conditions then exposed to film. After removal of MMP-2 probe, blots were rehybridized with β-actin probe for quantitation of the RNA load. Results were quantitated by densitometric evaluation of the autoradiographs.\n(§3) Lane 1 corresponds to the mRNA from HUVECs treated with DMSO (control). Lanes 2-4 show the mRNA isolated from HUVECs treated with compound 1 (10 μM) alone, compound 1 (10 μM) and bFGF (10 ng/mL), bFGF (10 ng/mL) alone, respectively."}, "[3]": {"test_system": "MMP-2", "assay": "Gelatin zymography of HUVEC conditioned medium, MMP-2 gelatinase activity (basal)", "format": "cell-based, human", "conditions": "24 hr", "method": "as §1\nAngiogenesis is characterized by a local degradation of subendothelial basement membrane by endothelial cell-secreted gelatinases. Aliquots of concentrated HUVEC conditioned medium from compound 1-treated and control cells were subjected to gelatin zymography, in order to test the effect of compound 1 on metalloproteinase production.\nGelatin zymography was carried out as described in Brown, et al., Cancer Research 50:6184-6191 (1990). HUVECs were seeded at 1.2×10^5 /cm^2 in 25 cm^2 fibronectin-coated tissue culture flasks in complete medium containing increasing concentrations of compound 1 (0.1-10 μM) or DMSO vehicle control. After 18 hr of culture, the complete medium was removed and the cells were washed once with serum-free M-199 supplemented with 5 μg/mL bovine insulin, 5 μg/mL human transferrin and 5 ng/mL sodium selenite (ITS). […]"}, "[4]": {"test_system": "β-actin", "assay": "Northern blot, β-actin probe for quantitation of RNA load in HUVECs", "format": "cell-based, human", "conditions": "24 hr", "method": "as §1, §2, §3"}, "[5]": {"test_system": "HUVECs", "assay": "HUVEC vascular tube formation on Matrigel", "format": "cell-based, human", "conditions": "24 hr", "method": "as §1\nAfter 12-24 hours, this rearrangement leads to the development of a network of tube-like structures that resemble capillaries. See, Kubota, et al., J. Cell Biol. 107:1589-1598 (1988).\nMatrigel is a solution of murine basement membrane enriched for laminin and collagen type IV and has been used previously as a permissive substrate for vessel formation. See, Albini, et al., Int. J. Oncol. 1:723-730 (1992). The effect of compound 1 on in vitro tube formation was tested using this system. Individual wells of 24 well plates were coated with a 300 μL aliquot of concentrated Matrigel solution (10 mg/mL) and allowed to solidify for 1 hr at 37° C. Compound 1 (1.0, 10 or 20 μM) or DMSO control (0.1%) was added to Matrigel and to the culture media. HUVECs (50,000 cells/well) were incubated on the Matrigel in complete medium for 24 hr then evaluated by phase contrast microscopy and photographed."}, "[6]": {"test_system": "HUVECs", "assay": "bFGF-stimulated HUVEC growth in low serum (1% FCS), crystal violet", "format": "cell-based", "conditions": "Homo sapiens, bFGF 10 ng/ml", "method": "as §1\nGrowth inhibition of HUVECs by compound 1 was measured by crystal violet nuclear stain. Briefly, 50,000 cells were seeded per well in 24 well plates using complete medium in the presence of increasing concentrations of compound 1 (0.01-10 μM) or DMS0 vehicle control (0.1%) and cultures were incubated for 24-120 hours. […] Optical density of the eluted samples was determined at 540 nm and the results were expressed as percent of DMSO control cell growth. Data are expressed as percentage of control value and are presented as mean±SEM (n=3).\nTo evaluate the effect of bFGF on HUVECs growth, cells were plated in low serum medium (1% FCS) in the presence of 10 ng/ml of bFGF and increasing concentrations of compound 1. At the indicated time, cells were fixed, stained, and quantitated as described above."}, "[7]": {"conditions": "bFGF 10 ng/mL + Compound 1 10 μM"}}}
{"smiles": "NC(=O)c1nnn(Cc2cc(Cl)c(C(=O)c3ccc(Cl)cc3)c(Cl)c2)c1N", "note": "[Compound 1, 5-amino-1-(4-(4-chlorobenzoyl)-3,5-dichlorobenzyl)1,2,3-triazole-4-carboxamide]", "values": [{"measurement": "% Inhibition (capillary formation in vivo)", "setting": "[1]; 10 μM", "value": 55, "unit": "%"}, {"measurement": "Eggs with avascular zones/total", "setting": "[1]; 10 μM", "value": "19/34"}, {"measurement": "embryos with large avascular zone", "setting": "[1]; 10 μM", "value": 55, "unit": "%"}, {"measurement": "% Inhibition (capillary formation in vivo)", "setting": "[1]; 20 μM", "value": 67, "unit": "%"}, {"measurement": "Eggs with avascular zones/total", "setting": "[1]; 20 μM", "value": "20/30"}, {"measurement": "embryos with large avascular zone", "setting": "[1]; 20 μM", "value": 67, "unit": "%"}, {"measurement": "angiogenesis inhibitory effect (in words)", "setting": "[1]; 10 or 20 μM", "value": "dose-dependent"}, {"measurement": "Corrected values (MMP-2 mRNA corrected for loading)", "setting": "[2]; Control + Compound 1, 10 μM", "value": 0.30}, {"measurement": "MMP-2 (densitometer)", "setting": "[2]; Control + Compound 1, 10 μM", "value": 38, "unit": "Densitometer units"}, {"measurement": "inhibition at 10 µM", "setting": "[2]; no bFGF, vs control, read-out: % Inhibition of native MMP-2 expression", "value": 86, "unit": "%"}, {"measurement": "inhibition at 10 µM", "setting": "[2]; bFGF 10 ng/mL, vs bFGF, read-out: % Inhibition of MMP-2 expression in presence of bFGF", "value": 62, "unit": "%"}, {"measurement": "Corrected values (MMP-2 mRNA corrected for loading)", "setting": "[2]; [7]", "value": 0.14}, {"measurement": "MMP-2 (densitometer)", "setting": "[2]; [7]", "value": 31, "unit": "Densitometer units"}, {"measurement": "inhibition of proMMP-2 and its activated form (in words)", "setting": "[3]; 0.1-10 μM", "value": "dose-dependent inhibition"}, {"measurement": "inhibition at 10 µM", "setting": "[3]; Homo sapiens, HUVEC, 10.0 μM, read-out: decrease in MMP-2 (densitometric analysis)", "value": 50, "unit": "%"}, {"measurement": "β-actin (densitometer)", "setting": "[4]; Control + Compound 1, 10 μM", "value": 127, "unit": "Densitometer units"}, {"measurement": "β-actin (densitometer)", "setting": "[4]; [7]", "value": 210, "unit": "Densitometer units"}, {"measurement": "inhibition of tube formation (in words)", "setting": "[5]; 20 μM, similar when omitted from the Matrigel", "value": "more striking inhibition of tube formation"}, {"measurement": "appearance of multicellular tubes vs DMSO control (in words)", "setting": "[5]; compound in Matrigel and media, similar when only in media", "value": "less extensive, thinner, foreshortened, and less cellular"}, {"measurement": "inhibition at 10 µM", "setting": "[6]; 72 h, 3 days from seeding, P2<0.01", "value": 25, "unit": "%"}, {"measurement": "inhibition at 10 µM", "setting": "[6]; 120 h, 5 days from seeding, P2<0.005", "value": 45, "unit": "%"}]}
